Assays:
[1] = system: Anti-BCMA CAR-expressing T cells; test: ATAC-seq chromatin accessibility in stimulated anti-BCMA CAR T cells in the presence or absence of lenalidomide; assay type: cell-based
Protocol: (§1) Anti-BCMA CAR-expressing T cells, generated from four (4) different independent donors, were stimulated with 50 μg/mL BCMA-conjugated beads for 24 hours (24 hr+stim) or 7 days (d7+stim), or cultured without stimulation for 24 hours (24 hr), in the presence or absence of lenalidomide. The CAR-expressing cells were assessed by RNA sequencing (RNA-seq) for gene expression and assayed for transposase-accessible chromatin using sequencing (ATAC-seq) for chromatin accessibility analysis.
(§2) RNA-seq was performed on the complementary DNA (cDNA) samples prepared from the RNA isolated from the cultured anti-BCMA CAR-expressing cells. ATAC-seq was performed generally as described in Buenrostro et al., Nat Methods. (2013) 10(12): 1213-1218. […]
(§3) Principal component analysis (PCA) was performed for the RNA-seq and ATAC-seq data sets, generated from DESeq2-normalized counts. Differential expression (DE, for RNA-seq) or consensus peak accessibility (DA, for ATAC-seq) were calculated, modeling donor effects (Donors 1-4) and treatment effects (lenalidomide vs. vehicle) at 24 hours and day 7. […] Gene ontology (GO) enrichment analysis was performed and activation z-score was determined on the subset of genes differentially expressed at q≤0.1 using Ingenuity Pathway Analysis software (Qiagen, Inc.), accounting for donor effects within each treatment condition.

[2] = system: Anti-BCMA CAR-expressing T cells; test: RNA-seq gene expression in stimulated anti-BCMA CAR T cells in the presence or absence of lenalidomide; assay type: cell-based
Protocol: as §1, §2, §3

SMILES: Nc1cccc2c1CN(C1CCC(=O)NC1=O)C2=O (stereo not shown) [lenalidomide]
- chromatin accessibility peaks changed ([1]; 7 days of culture with BCMA-conjugated bead stimulation, lenalidomide vs. vehicle, 4 donors, cut off q≤0.1): 2804 peaks
- motif enrichment analysis of peaks (transcription factor binding motifs of T cell activation and signaling) ([1]; day 7 cultures with stimulation, HOMER, consensus peakset as background): enriched in peaks with increased accessibility
- effect on biological signaling pathways (differentially expressed genes) ([2]; 24 hours or 7 days with stimulation, Ingenuity Pathway Analysis): increased expression of genes involved in T cell activation and signaling
- total genes altered as shown by gene expression changes ([2]; 7 days of culture with BCMA-conjugated bead stimulation, lenalidomide vs. vehicle, 4 donors, cut off q≤0.05 and log 2 fold change≥0.5): 583 genes

From patent US11821027B2, “Epigenetic analysis of cell therapy and related methods” (Juno Therapeutics, Inc., priority 2017, dated 2023)
